Where two headings read alike, the source gives them in different places.
Tests used:
mice [1] = assay: Relative immobility (R.I.), ring-immobility test, mouse tetrad; format: in vivo; conditions: Mus musculus
mice [2] = assay: Tail-flick antinociception (T.F.), mouse tetrad; format: in vivo; conditions: for ED50: Mus musculus, mice
human CB1 receptor [3] = target: T1, human CB1 receptor (Homo sapiens, UniProt P21554); assay: [35S]GTPγS binding assay in membranes of CB1 expressing cells; format: biochemical; conditions: for EC50: mean±SEM; for Emax: maximal GTPγS binding as percentage of stimulation produced by CP 55,940, read-out: CB1 % CP Stim
T1 construct: expressed in transfected cells; b94 says CHO for CB1
T1 sequence (P21554 whole entry): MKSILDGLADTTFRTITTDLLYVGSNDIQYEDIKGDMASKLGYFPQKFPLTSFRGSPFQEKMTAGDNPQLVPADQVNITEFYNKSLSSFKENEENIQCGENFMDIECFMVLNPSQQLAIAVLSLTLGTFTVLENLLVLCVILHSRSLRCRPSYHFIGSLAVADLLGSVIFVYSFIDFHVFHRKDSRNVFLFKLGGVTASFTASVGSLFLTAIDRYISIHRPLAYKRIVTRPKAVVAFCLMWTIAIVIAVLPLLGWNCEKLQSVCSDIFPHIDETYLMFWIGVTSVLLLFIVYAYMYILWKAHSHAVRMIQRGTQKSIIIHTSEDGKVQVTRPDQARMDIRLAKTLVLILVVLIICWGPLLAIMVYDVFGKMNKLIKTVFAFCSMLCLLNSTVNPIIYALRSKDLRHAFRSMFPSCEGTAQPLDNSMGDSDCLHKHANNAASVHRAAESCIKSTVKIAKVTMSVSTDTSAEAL
Protocol: (§1) For the in vivo studies, the drugs were dissolved in either saline or emulphor:ethanol:saline (E:E:S) as indicated.
(§2) cLogP calculations. Absolute solubility determinations were not performed. Rather, cLogP calculations were performed using the CS ChemDraw Ultra software (Cambridge Soft Corporation, Cambridge, Mass.). Receptor Binding. HEK-293 cells stably expressing the human CB1 receptor were cultured in DMEM with 10% FBS and Chinese Hamster Ovary (CHO) cells stably expressing the human CB2 receptor were cultured in DMEM with 10% FCS. Cells were harvested by replacement of the media with cold phosphate-buffered saline containing 1 mM EDTA followed by centrifugation at 1000×g for 5 min at 4° C. The pellet was resuspended in 50 mM Tris-HCl containing 320 mM sucrose, 2 mM EDTA and 5 mM MgCl2 (pH 7.4) (centrifugation buffer), then centrifuged at 1000×g for 10 min at 4° C., and the resulting supernatant was saved. This process was repeated twice. The supernatant fractions were combined and centrifuged at 40,000×g for 30 min at 4° C. The resulting P2 pellet was resuspended in assay buffer (50 mM Tris-HCl (pH 7.4), 3 mM MgCl2, 0.2 mM EGTA, and 100 mM NaCl) and protein was determined by the method of Bradford ENRfu(Bradford 1976). Membranes were stored at −80° C. until use. […] The assay was incubated at 30° C. for 1 hr and terminated by addition of ice cold 50 mM Tris-HCl plus BSA (1 mg/ml) (pH 7.4) followed by filtration under vacuum through Whatman GF/B glass fiber filters with 3 washes with cold Tris buffer. Bound radioactivity was determined by liquid scintillation spectrophotometry at 50% efficiency after extraction by shaking samples for 30-60 min with Budget-Solve scintillation fluid. Data are reported as the mean±SEM of three experiments, each performed in triplicate. Ki values were calculated from displacement data using EBDA (Equilibrium Binding Data Analysis; BIOSOFT, Milltown, N.J.). [^35S]GTPγS Binding Assays. Concentration-effect curves were generated by incubating membranes (10 μg prepared from CB1 expressing cells as described above) in assay buffer containing BSA (1 mg/ml) with various concentrations of test compounds in the presence of 20 μM GDP and 0.1 nM [^35S]GTPγS in a 1 ml total volume. […] Basal binding was assessed in the absence of agonist, and nonspecific binding was measured in the presence of 10 μM GTPγS. The reaction was incubated for 90 min at 30° C. and terminated by filtration under vacuum through Whatman GF/B glass fiber filters with 3 washes with cold (4° C.) Tris buffer (50 mM Tris-HCl, pH 7.4). Bound radioactivity was determined by liquid scintillation spectrophotometry at 95% efficiency after extraction overnight in ScintiSafe Econo 1 scintillation fluid. Data are reported as mean±SEM of three experiments, each performed in triplicate. Nonlinear regression analysis was conducted by iterative fitting using JMP (SAS for Macintosh). Net-stimulated [^35S]GTPγS binding is defined as [^35S]GTPγS binding in the presence of drug minus basal and percent stimulation is expressed as (net stimulated [^35S]GTPγS binding/basal)×100%. Behavioral Evaluations. All animals were allowed to acclimate to the observation room overnight. Behavioral effects were assessed in the tetrad model in order to measure potency in producing antinociception, catalepsy, hypothermia, and hypomobility. The baselines for tail-flick latency (2-4 seconds) and rectal temperature were determined prior to i.v. injections. Baseline rectal temperatures were measured using a telethermometer and a thermometer probe inserted to 25 mm (Yellow Springs Instrument Co., Yellow Springs, Ohio). The mice were then given either an i.v. i.c.v. injection of the analog. The mice were placed in individual photocell activity chambers 5 min later. Spontaneous activity was monitored for 10 min in a Digiscan Animal Activity Monitor (Omnitech Electronice, Inc., Columbus, Ohio) as measured by the number of interruptions of 16 photocell beams per chamber.

mice [4] = assay: Spontaneous activity (S.A.), mouse tetrad; format: in vivo; conditions: Mus musculus
mice [5] = assay: Rectal temperature (R.T.), mouse tetrad; format: in vivo; conditions: Mus musculus
human CB1 receptor [6] = target: T1, human CB1 receptor; assay: CB1 receptor binding, [3H]CP55,940 displacement in membranes of transfected cells
Protocol: as §1, §2

[7] = Protocol: By “water-soluble” we mean that 1 mg of material in 1 ml of water gives a clear solution and is water miscible.
as §1

[8] = iv, figure legends, i.v., vehicle 1:1:18 ethanol:emulphor:saline, read-out: ED50 after i.v. administration, relative immobility
[9] = iv, vehicle E:E:S (1:1:18), read-out: R.I. ED50 (relative immobility)
[10] = iv, figure legends, i.v., vehicle 1:1:18 ethanol:emulphor:saline, read-out: ED50 after i.v. administration, tail-flick
[11] = iv, i.v., vehicle E:E:S (1:1:18), read-out: T.F. ED50 (antinociception in the tail-flick procedure)
[12] = iv, figure legends, i.v., vehicle 1:1:18 ethanol:emulphor:saline, read-out: ED50 after i.v. administration, spontaneous activity
[13] = iv, vehicle E:E:S (1:1:18), read-out: S.A. ED50 (reducing spontaneous activity)
[14] = iv, figure legends, i.v., vehicle 1:1:18 ethanol:emulphor:saline, read-out: ED50 after i.v. administration, rectal temperature
[15] = iv, vehicle E:E:S (1:1:18), read-out: R.T. ED50 (lowering rectal temperature)

SMILES | Emax (human CB1 receptor [3]) [%] | ED50 (mice [1]; [8]) [µmol/kg] | ED50 (mice [1]; [9]) [µmol/kg] | ED50 (mice [2]; [10]) [µmol/kg] | ED50 (mice [2]; [11]) [µmol/kg] | EC50 (human CB1 receptor [3]; CB1 EC50, [35S]GTPγS binding) [nM] | ED50 (mice [4]; [12]) [µmol/kg] | ED50 (mice [4]; [13]) [µmol/kg] | ED50 (mice [5]; [14]) [µmol/kg] | ED50 (mice [5]; [15]) [µmol/kg] | Ki (human CB1 receptor [6]; CB1 Ki) [nM] | Solubility (water-soluble) [7] | also measured
CC1=CC[C@@H]2C(C1)c1c(OC(=O)CCCN(C(C)C)C(C)C)cc(C(C)(C)CCCCC(=O)N3CCOCC3)cc1OC2(C)C (stereo partly shown) [O-2694, Diisopropylaminobutyrate of Δ^8-THC-3-(1,1-dimethyl-6-morpholin-4-yl-6-oxo-hexyl)] | 120 ± 8.04 |  |  |  |  |  |  |  |  |  |  |  | ED50 (mice [1]; Table 4b, vehicle not indicated, read-out: R.I. ED50 (relative immobility)): 0.11 µmol/kg; ED50 (mice [2]; Table 4b, vehicle not indicated, read-out: T.F. ED50 (antinociception in the tail-flick procedure)): 0.035 µmol/kg; EC50 (human CB1 receptor [3]; [35S]GTPγS binding, read-out: CB1 EC50): 28.3 ± 3.47 nM; ED50 (mice [4]; Table 4b, vehicle not indicated, read-out: S.A. ED50 (reducing spontaneous activity)): 0.045 µmol/kg; ED50 (mice [5]; Table 4b, vehicle not indicated, read-out: R.T. ED50 (lowering rectal temperature)): 0.12 µmol/kg; Ki (human CB1 receptor [6]; Tables 2b, 3b, 4a, mean±SEM, read-out: CB1 Ki): 3.7 ± 0.43 nM; Solubility (water-soluble) ([7]; 1 mg of analog in 1 ml of water, visual observation): Yes
CC1=CC[C@@H]2[C@@H](C1)c1c(O)cc(C(C)(C)CCCCn3cccn3)cc1OC2(C)C [O-2715, Pyrazol-1-yl] | 93 ± 1.75 | 0.07 | 0.07 | 0.06 | 0.06 | 4.03 ± 0.28 | 0.004 | 0.004 | 0.14 | 0.14 | 1.94 ± 0.29 | No | Analgesia in the tail-flick procedure (mice [2]; oral 10 mg/kg, at one hr): 21±6%
CC1=CC[C@@H]2[C@@H](C1)c1c(O)cc(C(C)(C)CCCCn3cncn3)cc1OC2(C)C [O-2716, 1,2,4-Triazol-1-yl] | 93.1 ± 1.65 | 0.2 | 0.2 | 0.09 | 0.09 | 36.8 ± 4.23 | 0.03 | 0.03 | 0.15 | 0.15 | 3.43 ± 0.16 | No | Antinociception following oral administration (mice [2]; oral, maximum dose tested 10 mg/kg, 30 minutes before testing): failed to produce complete antinociception
